Experimental data published in US8476314B2, “Substance with sedative effect” (Technology Commercialization Corp, priority 2002, dated 2013).
“Also recorded” adds a separate entry of the source.

Key:
[1] = test system: opioid (or opioid-like) receptor; test: patch-clamp experiments, receptor binding (naltrexone block, affinity order); type: cell-based; settings: patch-clamp results, decreasing affinity
Source text: The physiological effect on the Nav1.8 channel of the following closely related gamma-pyrone derivatives (see FIG. 1) was investigated: I) comenic acid (5-hydroxy-gamma-pyrone-2-carboxylic acid), II) meconic acid (3-hydroxy-gamma-pyrone-2,6-dicarboxylic acid, III) 5-methoxy-gamma-pyrone-2-carboxylic acid, IV) kojic acid (2-hydroxymethyl-5-hydroxy-gamma-pyrone) and V) chelidonic acid (gamma-pyrone-2,6-dicarboxylic acid). […] Clinical Pathophysiology (Russian), in press].
Thus, according to the model of the mechanism of ligand receptor binding of said opioid (or opioid like) receptor, the prerequisites for gamma-pyrones receptor activity are 1) a carboxy group in position 2 of the pyranone ring, 2) a carbonyl group in position 4 of the pyranone ring, and 3) a substituent in position 5 which can participate in Ca^2+ chelation. […] Clinical Pathophysiology (Russian), in press]. Based on these observations, several conclusions concerning the potential effect of substituents in positions 3, 5 and 6 on the stability of ligand-receptor complex can be drawn. The presence of a carboxy group in position 6 (meconic acid, II) increases ligand affinity to the receptor as compared with comenic acid (I). It may be proposed that the carboxy group in position 6 is involved in additional interaction with one or several polar functional groups of the receptor by formation of intermolecular hydrogen or salt bonds. Based on this, introduction of a hydrophobic substituent in position 6 should reduce the affinity of gamma-pyrone derivatives to said opioid (or opioid-like) receptor. […] An increase in the size of the alkoxy group in position 5 will also lead to a further decrease or even total loss of physiological activity of the gamma-pyrone molecule. Bulky substituents in positions 3, 5 and 6 will decrease the affinity of gamma-pyrones to said receptor, since they will less readily be accommodated in the binding pocket.

[2] = test system: tetrodotoxin-resistant (TTXr) Nav1.8 slow sodium channels; test: patch-clamp experiments on dorsal root ganglion neurons; type: cell-based; settings: for modulation of the activity of TTXr Nav1.8 slow sodium channels: patch-clamp, extracellular solution Na+ 65 mM, Ca2+ 2 mM, Mg2+ 2 mM
solubility = type: physicochemical
animals [3] = test: continued daily administration to animals (sedative effect, dependency); type: in vivo
Method: (§1) One of the preferred compounds of the invention is comenic acid, also known as 5-hydroxy-4-oxo-4H-pyran-2-carbon acid, as well as 5-hydroxy-gamma-pyrone-2-carboxylic acid. […] The effect is long lasting, up to 24 hours after administration. […] The acid can be administered in a number of pharmaceutically acceptable ways by mixing it with known and biologically acceptable carriers. Administration methods include all parenteral modes, including injection (intravenously, subcutaneously, intramuscularly or intraperitoneal), transdermally, transmucosally, etc. […] This duration compares quite favorably to a typical drug abuse treatment cycle of 3 to 6 months using substitution methods such as methadone.
The effect from each administration lasts up to 24 hours.

male rats of Wistar line = test: "open field" test, motor activity of rats (sedative effect); type: in vivo, rat; settings: for Motor activity after the preparation's introduction (n): enteral, squares crossed within 5 minutes; for Lowering motor activity relative to the control (%): vs saline; for Lowering motor activity relative to the Valerian extract (%): vs same dose of Valerian extract
Method: The sedative effect was measured by the change in motor activity of male rats of Wistar line with the mass of 0.20-0.23 kg in “the open field” test [Guiding and Method Materials in Experimental and Clinical Study of New Drugs. Part 2. M., 1980, pp. 126-133].
Male rats were subjected to the enteral introduction of 0.5 ml of saline solution. Then, the animals were divided into two groups. The rats in the first group were tested in “the open field” 60 minutes after the solution's introduction. The rats in the second group were tested 90 minutes after the introduction. The test consisted of the rat being placed in the center of “the open field”, and then the number of squares of “the open field” that the rat crosses within 5 minutes is counted (an estimation of motor activity).
Valerian extract was steamed until it became dry. Then, the dry remains were dissolved in saline in the required dosage (see table 1 and rated in mg/kg of a rat's body weight). The solution obtained was introduced into rats in the same way as for control. The testing of rats in “the open field” was also carried out as described for control.
Comenic acid was dissolved in saline in the desired dosages (see table 1 below). The solution's pH was adjusted to equal 6.5-6.8 using concentrated NaOH solution. Comenic acid was introduced into the rats in the same way as in control. The testing of rats in “the open field” was carried out as described for control group as well.

animals [4] = test: treatment of narcotic dependency / withdrawal syndrome in animals; type: in vivo; settings: pharmacologically effective dose
Method: as §1
It is intended that the selected gamma-pyrones as described in the proceeding section be administered as a substitute for the abused drug. Typically, this will involve administration of a therapeutically effective amount of a composition containing the compounds of the invention at least once every twenty-four hours. […] The preferred dosage range is from about 0.05 to about 0.5 mg per kilogram of body weight per day. Such daily dosage can be achieved in a single application, multiple applications or using a continuous release application.

Pliss limphosarcoma = test: growth of transplanted Pliss limphosarcoma in rats; type: in vivo; settings: 50 mg/kg i.p., once per day, 5 times per week, 10 injections; tumor volumes day 6, 9, 13, 16 and mortality vs control; Anoceptin 1% solution
Method: Comenic acid (in medicinal form, referred to as “Anoceptin™”) was also tested on rats with transplanted tumors (Pliss limphosarcoma) to determine if it stimulated tumor growth (Effect of medicine Anoceptin on the growth of transplantable tumor in rats, State Oncology Institute, 2006, Saint-Petersburg, Russia). Pliss limphosarcoma was transplanted subcutaneously into 20 rats. Forty-eight hours after transplantation, the rats were randomly assigned into groups (10 rats in experimental group, and 10 in control group) and the injections were started. Both groups were injected i.p. (intraperitoneal) once per day, 5 times per week and given a total of 10 injections each. The experimental group was administered 50 mg/kg of comenic acid in each injection, while the control group was injected with 1.5 ml of physiological solution. Comenic acid was utilized in its medicinal form (“Anoceptin™”), a 1% solution with ions of proper moiety. For both groups, the size of the tumor was measured on day 6, 9, 13 and 16 of the experiment, and the volumes were calculated. […] The data was determined to be statistically significant, with p<0.05.

Ehrlich carcinoma = test: growth of transplanted Ehrlich carcinoma in rats; type: in vivo; settings: 50 mg/kg i.p., once per day, 5 times per week, 10 injections; tumor volumes day 13-44 and mortality vs control; Anoceptin 1% solution
Method: Comenic acid (in medicinal form, referred to as “Anoceptin™”) was also tested on rats with transplanted tumors (Ehrlich carcinoma) to determine if it stimulated tumor growth (Effect of medicine Anoceptin on the growth of transplantable tumor, State Oncology Institute, 2006, Saint-Petersburg, Russia). Ehrlich carcinoma was transplanted subcutaneously into 20 rats. Forty-eight hours after transplantation, the rats were randomly assigned into groups (10 rats in experimental group, and 10 in control group) and the injections were started. Both groups were injected i.p. (intraperitoneal) once per day, 5 times per week and given a total of 10 injections each. The experimental group was administered 50 mg/kg of comenic acid in each injection, while each in the control group was injected with 0.125 ml of physiological solution. Comenic acid was utilized in its medicinal form (“Anoceptin™”), a 1% solution with ions of proper moiety. For both groups, the size of the tumor was measured on day 13, 16, 20, 23, 27, 30, 37 and 44 of the experiment, and the volumes were calculated. […] The data was determined to be statistically significant, with p<0.05.

[5] = experiments repeated with the same rats

## O=C(O)c1cc(=O)c(O)c(C(=O)O)o1 [II, 3-hydroxy-gamma-pyrone-2,6-dicarboxylic acid]
[1]
  order of affinity of the test molecule to the receptor: II>I>III
[2]
  modulation of the activity of TTXr Nav1.8 slow sodium channels: modulated the activity

## O=C(O)c1cc(=O)c(O)co1 [Comenic acid, 5-hydroxy-gamma-pyrone-2-carboxylic acid]
[1]
  order of affinity of the test molecule to the receptor: II>I>III
solubility
  solubility in non-polar organic solvents: practically insoluble
  solubility in water and alcohol: moderately water- and alcohol-soluble
Animals [3]; 50 days of continued daily use
  drug dependency after continued daily use: without causing drug dependency
Animals [3]; each administration
  duration of the effect after administration: up to 24 hours
[2]; listed as I
  modulation of the activity of TTXr Nav1.8 slow sodium channels: modulated the activity; also recorded: shown to modulate the functioning
Male rats of Wistar line; 1 mg/kg of body weight, 60 min
  Motor activity after the preparation's introduction (n): 43.9 ± 6.8 n
Male rats of Wistar line; 1 mg/kg of body weight, 90 min
  Motor activity after the preparation's introduction (n): 51.2 ± 8.3 n
Male rats of Wistar line; 1 mg/kg, 60 min
  Lowering motor activity relative to the control (%): 13%
  Lowering motor activity relative to the Valerian extract (%): 19%
Male rats of Wistar line; 1 mg/kg, 90 min
  Lowering motor activity relative to the control (%): −8%
  Lowering motor activity relative to the Valerian extract (%): −21%
Male rats of Wistar line; 10 mg/kg of body weight, 60 min
  Motor activity after the preparation's introduction (n): 37.6 ± 5.9 n
Male rats of Wistar line; 10 mg/kg of body weight, 90 min
  Motor activity after the preparation's introduction (n): 41.6 ± 6.8 n
Male rats of Wistar line; 10 mg/kg, 60 min
  Lowering motor activity relative to the control (%): 25%
  Lowering motor activity relative to the Valerian extract (%): 22%
Male rats of Wistar line; 10 mg/kg, 90 min
  Lowering motor activity relative to the control (%): 12.5%
  Lowering motor activity relative to the Valerian extract (%): −9%
Male rats of Wistar line; 50 mg/kg of body weight, 60 min
  Motor activity after the preparation's introduction (n): 18.7 ± 3.3 n
Male rats of Wistar line; 50 mg/kg of body weight, 90 min
  Motor activity after the preparation's introduction (n): 15.2 ± 3.1 n
Male rats of Wistar line; 50 mg/kg, 60 min
  Lowering motor activity relative to the control (%): 63%
  Lowering motor activity relative to the Valerian extract (%): 52%
Male rats of Wistar line; 50 mg/kg, 90 min
  Lowering motor activity relative to the control (%): 68%
  Lowering motor activity relative to the Valerian extract (%): 52%
Male rats of Wistar line; 100 mg/kg of body weight, 60 min
  Motor activity after the preparation's introduction (n): 13.4 ± 4.8 n
Male rats of Wistar line; 100 mg/kg of body weight, 90 min
  Motor activity after the preparation's introduction (n): 10.3 ± 2.8 n
Male rats of Wistar line; 100 mg/kg, 60 min
  Lowering motor activity relative to the control (%): 73%
  Lowering motor activity relative to the Valerian extract (%): 67%
Male rats of Wistar line; 100 mg/kg, 90 min
  Lowering motor activity relative to the control (%): 78%
  Lowering motor activity relative to the Valerian extract (%): 53%
Male rats of Wistar line; [5]
  development of tolerance: no development of tolerance
  drug dependency: no indication of drug dependency
  other side effects of the administration: no other side effects
Male rats of Wistar line; rats, open field, 50 and 100 mg/kg
  sedative effect compared with that of valerian extract: twice
Animals [4]
  treatment of narcotic dependency in animals: effective treatment for the cure of narcotic dependency
Pliss limphosarcoma
  effect on the growth of transplantable tumors of Pliss limphosarcoma: no effect (no stimulation and no inhibition)
Ehrlich carcinoma
  effect on the growth of transplantable tumors of Ehrlich carcinoma: no effect (no stimulation and no inhibition)

## O=C(O)c1cc(=O)cc(C(=O)O)o1 [V, gamma-pyrone-2,6-dicarboxylic acid, reference compound]
[2]
  modulation of the activity of TTXr Nav1.8 slow sodium channels: did not exhibit such effect; also recorded: did not influence the functioning

## O=c1cc(CO)occ1O [IV, 2-hydroxymethyl-5-hydroxy-gamma-pyrone, reference compound]
[2]
  modulation of the activity of TTXr Nav1.8 slow sodium channels: did not exhibit such effect; also recorded: did not influence the functioning

## COc1coc(C(=O)O)cc1=O [III, 5-methoxy-gamma-pyrone-2-carboxylic acid]
[1]
  order of affinity of the test molecule to the receptor: II>I>III
solubility
  solubility in non-polar organic solvents: practically insoluble
  solubility in water and alcohol: moderately water- and alcohol-soluble
[2]; patch clamp, dorsal root ganglion neurons
  effect on the Nav1.8 slow sodium channel compared with comenic acid (I): decrease in activity
[2]
  modulation of the activity of TTXr Nav1.8 slow sodium channels: modulated the activity; also recorded: shown to modulate the functioning
